This passage reports IC50 results from doi:10.1101/2025.01.10.632200, “Chemoproteomic Profiling of C. albicans for Characterization of Anti-fungal Kinase Inhibitors” (bioRxiv, 2025).

Holding throughout (assay type): biochemical
Experiment [1] deals with T1, Yck2 (Candida albicans, UniProt A0A1D8PKB4). As to the kind of experiment: purified enzyme kinase assay.
Experiment [2] addresses T1, Yck2. As to the kind of experiment: purified enzyme kinase assay; also NanoBRET ([…]) and MIB/MS competition. In general terms: In BRET a luciferase serves as donor, and the signal depends on an acceptor being close.
In another experiment the target is T2, p38α (Homo sapiens, UniProt Q16539).
T2 construct: gene MAPK14
T2 sequence (Q16539 2-360): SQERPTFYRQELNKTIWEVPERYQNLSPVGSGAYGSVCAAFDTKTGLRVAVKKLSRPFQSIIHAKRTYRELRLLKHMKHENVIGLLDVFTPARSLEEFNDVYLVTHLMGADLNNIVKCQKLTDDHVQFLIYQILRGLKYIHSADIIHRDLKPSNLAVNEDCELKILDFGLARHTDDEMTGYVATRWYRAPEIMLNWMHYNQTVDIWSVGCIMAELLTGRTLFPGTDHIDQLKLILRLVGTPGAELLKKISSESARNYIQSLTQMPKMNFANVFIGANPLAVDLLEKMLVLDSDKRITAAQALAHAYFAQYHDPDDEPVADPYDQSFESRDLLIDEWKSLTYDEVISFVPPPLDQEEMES
In words: purified enzyme kinase assay; also NanoBRET ([…]).

For another experiment, the target named is T3, CK1α (Homo sapiens, UniProt P48729).
T3 construct: gene CSNK1A1
T3 sequence (P48729 2-337): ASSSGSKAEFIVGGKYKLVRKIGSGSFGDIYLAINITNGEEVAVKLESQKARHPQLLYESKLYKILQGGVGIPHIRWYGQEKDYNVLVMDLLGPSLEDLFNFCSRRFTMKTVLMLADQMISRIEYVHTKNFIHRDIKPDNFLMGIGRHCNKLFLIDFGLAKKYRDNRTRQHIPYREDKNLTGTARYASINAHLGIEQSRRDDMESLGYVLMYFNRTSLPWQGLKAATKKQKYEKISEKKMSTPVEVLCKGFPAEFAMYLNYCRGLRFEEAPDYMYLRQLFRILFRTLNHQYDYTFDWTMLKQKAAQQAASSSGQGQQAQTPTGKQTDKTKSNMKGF
As to the kind of experiment: purified enzyme kinase assay.

In experiment [3] the target is T1, Yck2. As to the kind of experiment: purified enzyme kinase assay; also NanoBRET ([…]).

T1 sequence (A0A1D8PKB4 entry or part of it): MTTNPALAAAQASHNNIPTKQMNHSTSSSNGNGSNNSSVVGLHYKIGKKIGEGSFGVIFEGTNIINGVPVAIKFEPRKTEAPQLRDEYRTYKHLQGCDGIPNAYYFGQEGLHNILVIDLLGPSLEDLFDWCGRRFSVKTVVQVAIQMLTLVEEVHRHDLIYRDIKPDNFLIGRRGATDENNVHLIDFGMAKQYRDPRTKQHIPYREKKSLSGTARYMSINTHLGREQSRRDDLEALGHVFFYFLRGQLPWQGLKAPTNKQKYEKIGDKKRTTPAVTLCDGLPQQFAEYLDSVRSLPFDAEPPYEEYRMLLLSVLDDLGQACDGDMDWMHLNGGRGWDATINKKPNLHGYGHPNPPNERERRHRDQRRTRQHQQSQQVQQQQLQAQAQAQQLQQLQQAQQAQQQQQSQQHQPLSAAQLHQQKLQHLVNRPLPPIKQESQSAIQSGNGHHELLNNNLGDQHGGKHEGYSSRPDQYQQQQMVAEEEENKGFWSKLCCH

At Yck2 [1], `Cc1nc(N)sc1-c1ccnc(Nc2ccc(N3CCOCC3)cc2)n1` [Cyc-116] came in with a half-maximal inhibitory concentration (IC50) of 0.14 µM.
For the compound `Cc1n[nH]c2ccc(-c3cc(OC[C@@H](N)Cc4ccccc4)cnc3-c3ccoc3)cc12` [GSK, GSK507358A], the 50% inhibitory concentration (IC50) on Yck2 [2] worked out at 0.16 µM.
Compound `Cc1ccc2c(-c3ccncc3)c(-c3ccc(F)cc3)nn2c1` [GW, GW461484A] displayed a half-maximal inhibitory concentration (IC50) against p38α of 0.17 µM.
In the case of `CN1CCC(F)(Cn2cnc(-c3ccc(F)cn3)c2-c2ccnc3[nH]ccc23)CC1` [MU1742], the IC50 against CK1α was 0.014 µM.
Compound `CC(=O)c1cnc2ccc(-c3cc(Cl)c(O)c(Cl)c3)nc2c1N[C@H]1CC[C@H](CN(C)C)CC1` [OTS-167] yielded a concentration for half-maximal inhibition (IC50) at Yck2 [3] of 0.13 µM.

A word on the IC50: it is the midpoint of a concentration-inhibition curve. A high value points to weaker potency.
